Measured values published in US12440487B2, “Method of normalizing the neutrophil to lymphocyte ratio in cancer patients with a selective glucocorticoid receptor antagonist” (Corcept Therapeutics Incorporated, priority 2019, dated 2025).
Values joined by “and” are separate entries in the source; they are usually repeats but may differ in a detail not shown here. Equal values may be shown once. “Also recorded” adds a separate entry of the source.

Legend:
[1] = tested on: neutrophil or lymphocyte abundance in the blood; settings: healthy men / healthy subjects; cited from earlier work
[2] = target: glucocorticoid receptor (GR) (Homo sapiens, UniProt P04150); settings: binds to GR, PR and AR; cited from earlier work
glucocorticoid receptor (GR), sequence (P04150 whole entry, species assumed): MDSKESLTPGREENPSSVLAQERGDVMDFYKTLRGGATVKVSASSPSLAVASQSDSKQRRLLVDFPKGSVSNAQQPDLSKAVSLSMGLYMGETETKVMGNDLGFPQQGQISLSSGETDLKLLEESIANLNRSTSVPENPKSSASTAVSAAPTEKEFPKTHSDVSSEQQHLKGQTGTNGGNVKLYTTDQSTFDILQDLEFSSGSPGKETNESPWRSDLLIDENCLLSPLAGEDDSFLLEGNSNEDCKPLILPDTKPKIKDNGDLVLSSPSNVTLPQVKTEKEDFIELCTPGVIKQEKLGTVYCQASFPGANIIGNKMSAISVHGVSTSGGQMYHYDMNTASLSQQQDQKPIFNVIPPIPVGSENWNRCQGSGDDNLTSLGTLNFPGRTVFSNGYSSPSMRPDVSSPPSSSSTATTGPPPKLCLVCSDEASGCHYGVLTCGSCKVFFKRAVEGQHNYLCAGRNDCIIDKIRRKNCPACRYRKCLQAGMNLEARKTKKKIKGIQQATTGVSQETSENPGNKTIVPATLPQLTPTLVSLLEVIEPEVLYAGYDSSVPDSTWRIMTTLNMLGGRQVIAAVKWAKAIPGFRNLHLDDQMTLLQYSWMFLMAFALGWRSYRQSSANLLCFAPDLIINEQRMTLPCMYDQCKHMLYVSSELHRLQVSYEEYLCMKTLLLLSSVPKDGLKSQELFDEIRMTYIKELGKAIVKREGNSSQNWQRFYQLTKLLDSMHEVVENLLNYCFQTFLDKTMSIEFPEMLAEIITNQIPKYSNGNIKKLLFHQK

[3] = tested on: neutrophil-to-lymphocyte ratio (NLR); test: Prednisone-challenge NLR study in healthy subjects (NCT03508635, SAD and MAD cohorts); type: in vivo, human
Description: Methods: Lymphocyte and neutrophil abundance were determined using standard differential complete blood count tests.
(§1) Healthy subjects were enrolled in the NCT03508635 study of relacorilant. […] (C) is the Figure legend.
(§2) The intensive NLR sampling was conducted at time 0 (morning, pre-dose) and then 2, 4, 8, 12, and 24 hours thereafter. The single NLR samples were collected in the in the morning, pre-dose. The SAD portion of this experiment used a 500 mg dose while the MAD used a once daily 250 mg dose.
(§3) Blood was also drawn in the morning, pre-dose.

[4] = tested on: neutrophil-to-lymphocyte ratio (NLR); test: Relacorilant alone, NLR in healthy subjects (NCT03508635); type: in vivo, human; settings: 250 mg for 14 continuous days, cohort of 7 healthy subjects, none with baseline NLR greater than 3
Description: as §1, §2, §3
The normalization of the NLR by relacorilant is thought to occur through antagonism of endogenous cortisol. If patients have elevated cortisol activity, relacorilant would be expected to normalize this activity. Alternatively, relacorilant alone could cause neutropenia (reduction in neutrophils) or lymphocytosis (increase in lymphocytes) via antagonism of normal endogenous cortisol. To distinguish these two possibilities, we assessed the effects of relacorilant alone in healthy subject with normal endogenous cortisol. After 14 administering 250 mg of relacorilant for 14 continuous days, no change in the NLR was observed across a cohort of 7 healthy subjects (FIG. 7).

[5] = tested on: neutrophil-to-lymphocyte ratio (NLR); test: 7-day single-agent relacorilant lead-in, NLR in patients with advanced solid tumors (NCT02762981); type: in vivo, human; settings: for patients who experienced a decrease in NLR / average change in NLR: 7-day relacorilant lead-in
Description: The relacorilant lead-in included daily dosing of relacorilant alone (without nab-paclitaxel) for 7 days.
Drug concentrations were determined in study NCT02762981. Blood was collected at multiple timepoints on day 7 of relacorilant dosing. Upon collection, blood was chelated with EDTA, centrifuged, and plasma was aliquoted. Bioanalytical analyses were conducted by MicroConstants (San Diego, CA, USA). In brief, human plasma samples containing relacorilant and its stable-labeled analog as an internal standard and K3EDTA as the anticoagulant were buffered with an ammonium citrate solution and extracted with 2-butanol:hexane (2.5:97.5, v/v). The samples were vortex mixed, centrifuged and the lower portion was frozen in an ultra-cold freezer. The organic portion was transferred to a clean tube and evaporated under nitrogen. The extracts were dried, reconstituted and analyzed by reversed-phase HPLC using an ACE UltraCore SuperPhenylHexyl column. The mobile phase was nebulized using heated nitrogen in a Z-spray source/interface set to electrospray positive ionization mode. The ionized compounds were detected using MS/MS.
as §3

[6] = target: T1, progesterone receptor (Homo sapiens, UniProt P06401); settings: cited from earlier work
T1 sequence (P06401 1-933): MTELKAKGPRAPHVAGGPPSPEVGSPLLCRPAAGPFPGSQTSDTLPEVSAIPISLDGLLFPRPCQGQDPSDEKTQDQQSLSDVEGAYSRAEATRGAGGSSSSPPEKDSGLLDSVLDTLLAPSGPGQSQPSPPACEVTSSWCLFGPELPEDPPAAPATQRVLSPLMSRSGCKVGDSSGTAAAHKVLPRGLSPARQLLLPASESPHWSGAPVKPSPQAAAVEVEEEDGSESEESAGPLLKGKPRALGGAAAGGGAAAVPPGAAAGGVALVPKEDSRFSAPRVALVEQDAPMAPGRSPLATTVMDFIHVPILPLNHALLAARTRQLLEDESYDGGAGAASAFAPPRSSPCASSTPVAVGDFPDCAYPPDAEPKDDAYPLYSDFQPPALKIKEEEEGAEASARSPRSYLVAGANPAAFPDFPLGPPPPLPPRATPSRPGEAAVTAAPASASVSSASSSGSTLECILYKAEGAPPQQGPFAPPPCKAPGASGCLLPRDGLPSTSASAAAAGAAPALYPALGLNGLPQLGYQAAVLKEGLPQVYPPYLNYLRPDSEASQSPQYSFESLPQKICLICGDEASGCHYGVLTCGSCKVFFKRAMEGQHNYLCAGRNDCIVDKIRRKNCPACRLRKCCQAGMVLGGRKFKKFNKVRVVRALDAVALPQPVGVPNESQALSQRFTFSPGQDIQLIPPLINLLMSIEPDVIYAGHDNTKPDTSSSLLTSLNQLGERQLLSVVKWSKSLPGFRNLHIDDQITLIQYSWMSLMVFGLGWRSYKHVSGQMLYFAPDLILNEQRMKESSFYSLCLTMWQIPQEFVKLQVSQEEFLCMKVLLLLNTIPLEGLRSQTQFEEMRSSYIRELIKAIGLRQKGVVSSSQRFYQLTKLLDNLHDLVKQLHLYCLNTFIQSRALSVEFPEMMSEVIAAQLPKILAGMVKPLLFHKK

CC#C[C@]1(O)CC[C@H]2[C@@H]3CCC4=CC(=O)CCC4=C3[C@@H](c3ccc(N(C)C)cc3)C[C@@]21C [mifepristone, 11β-(4-dimethylaminophenyl)-17β-hydroxy-17α-(1-propynyl)-estra-4,9-dien-3-one]
effect on neutrophil or lymphocyte abundance in the blood [1]: does not alter | selectivity for GR [2]: not selective

Cn1cc(S(=O)(=O)N2CCC3=Cc4c(cnn4-c4ccc(F)cc4)C[C@]3(C(=O)c3cc(C(F)(F)F)ccn3)C2)cn1 [relacorilant, (R)-(1-(4-fluorophenyl)-6-((1-methyl-1H-pyrazol-4-yl)sulfonyl)-4,4a,5,6,7,8-hexahydro-1H-pyrazolo[3,4-g]isoquinolin-4a-yl)(4-(trifluoromethyl)pyridin-2-yl)methanone]
effect on prednisone-induced NLR increase ([3]; 14 consecutive days of 250 mg/day relacorilant, then 25 mg prednisone, healthy subjects): significantly blunted; also recorded: reversed the effects | NLR area under the curve ([3]; MAD cohort, 25 mg prednisone after 14 consecutive days of 250 mg/day relacorilant): 9.6 NLR*hr | NLR area under the curve ([3]; SAD cohort, single 500 mg dose relacorilant administered with 25 mg prednisone): 12.5 NLR*hr | effect on prednisone-induced NLR increase ([3]; relacorilant co-administration with 25 mg prednisone, healthy subjects (n=9)): reversed this effect | effect on prednisone-induced NLR increase ([3]; single 500 mg dose relacorilant with 25 mg prednisone, healthy subjects): significantly blunted; also recorded: reversed the effects | change in the NLR with relacorilant alone [4]: no change; also recorded: does not change | patients who experienced a decrease in NLR ([5]; patients with AUC between 2011-8000 ng*hr/ml (6/13)): 46% | average change in NLR ([5]; patients with AUC between 3740-8000 ng*hr/ml): −6.1% | patients who experienced a decrease in NLR ([5]; patients with AUC<2011 ng*hr/ml or Cmax<442 ng/ml): None | patients who experienced a decrease in NLR ([5]; patients with Cmax between 442-1000 ng/ml (6/9)): 67% | average change in NLR ([5]; patients with Cmax between 595-836 ng/ml): −4.4% | NLR change from baseline (CfB) ([5]; ovarian cancer patient 038-4004, 7-day relacorilant lead-in): −46% and −55% | NLR after relacorilant lead-in ([5]; ovarian cancer patient 038-4004, 7-day relacorilant lead-in, NLR before 5.5): 2.5 | antagonism of the progesterone receptor [6]: does not antagonize

C[C@]12C=CC(=O)C=C1CC[C@@H]1[C@@H]2C(=O)C[C@@]2(C)[C@H]1CC[C@]2(O)C(=O)CO [prednisone, 17α,21-dihydroxypregna-1,4-diene-3,11,20-trione, reference compound]
NLR area under the curve ([3]; 25 mg prednisone after 14 consecutive days of placebo, different subjects): 72 NLR*hr | NLR at 8 hours post prednisone ([3]; 9 healthy subjects, single dose 25 mg prednisone, baseline less than 2, returned to baseline after 24 hours): greater than 6 | NLR area under the curve ([3]; MAD cohort, 25 mg prednisone alone, same subjects on Day −5): 61.7 NLR*hr | NLR area under the curve ([3]; SAD cohort, 25 mg prednisone alone): 54.6 NLR*hr | acute increase of the neutrophil-to-lymphocyte ratio (NLR) ([3]; healthy subjects (n=9), 25 mg prednisone): 4.7 fold
